Test results taken from the supplement of paper PMC10307832.

Legend:
Assay in all cases: relative viability (nuclei count vs DMSO), 5 days (fraction); higher = more cells survive
IPA-3 + Pictilisib = compound: C1=CC=C2C(=C1)C=CC(=C2SSC3=C(C=CC4=CC=CC=C43)O)O [IPA-3] + CS(=O)(=O)N1CCN(Cc2cc3nc(-c4cccc5[nH]ncc45)nc(N4CCOCC4)c3s2)CC1 [Pictilisib] (partner 1 µM)
Method in brief: (§1)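 Medians of duplicate plates are given as relative viability. That measure is the nuclei count in treated wells divided by the count in vehicle wells. Counts were taken on 4× images of lung cancer cell lines in 1536-well plates, 5 days after pin-tool dosing the day after seeding with one drug alone or a fixed anchor-drug dose plus five library-drug doses (not always all listed) in √10 steps.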

IPA-3 + Trametinib = compound: C1=CC=C2C(=C1)C=CC(=C2SSC3=C(C=CC4=CC=CC=C43)O)O [IPA-3] + CC(=O)Nc1cccc(-n2c(=O)n(C3CC3)c(=O)c3c(Nc4ccc(I)cc4F)n(C)c(=O)c(C)c32)c1 [Trametinib] (partner 0.02 µM)
Method in brief: as §1

Doramapimod + Alpelisib = compound: Cc1ccc(-n2nc(C(C)(C)C)cc2NC(=O)Nc2ccc(OCCN3CCOCC3)c3ccccc23)cc1 [Doramapimod] + Cc1nc(NC(=O)N2CCC[C@H]2C(N)=O)sc1-c1ccnc(C(C)(C)C(F)(F)F)c1 [Alpelisib] (partner 2 µM)
Method in brief: as §1

RAF265 + Phenformin = compound: Cn1c(Nc2ccc(C(F)(F)F)cc2)nc2cc(Oc3ccnc(-c4ncc(C(F)(F)F)[nH]4)c3)ccc21 [RAF265] + N=C(N)NC(=N)NCCc1ccccc1 [Phenformin] (partner 250 µM)
Method in brief: as §1

Cell Line | relative viability (IPA-3 + Pictilisib; first compound 0.2 µM) | relative viability (IPA-3 + Pictilisib; first compound 0.6325 µM) | relative viability (IPA-3 + Pictilisib; first compound 2 µM) | relative viability (IPA-3 + Pictilisib; first compound 6.325 µM) | relative viability (IPA-3 + Pictilisib; first compound 20 µM) | relative viability (IPA-3 + Trametinib; first compound 0.2 µM) | relative viability (IPA-3 + Trametinib; first compound 0.6325 µM) | relative viability (IPA-3 + Trametinib; first compound 2 µM) | relative viability (IPA-3 + Trametinib; first compound 6.325 µM) | relative viability (IPA-3 + Trametinib; first compound 20 µM) | relative viability (Doramapimod + Alpelisib; first compound 0.02 µM) | relative viability (Doramapimod + Alpelisib; first compound 0.06325 µM) | relative viability (Doramapimod + Alpelisib; first compound 0.2 µM) | relative viability (Doramapimod + Alpelisib; first compound 0.6325 µM) | relative viability (Doramapimod + Alpelisib; first compound 2 µM) | relative viability (RAF265 + Phenformin; first compound 0.01 µM) | relative viability (RAF265 + Phenformin; first compound 0.03162 µM) | relative viability (RAF265 + Phenformin; first compound 0.1 µM) | relative viability (RAF265 + Phenformin; first compound 0.3162 µM) | relative viability (RAF265 + Phenformin; first compound 1 µM)
201T | 0.748 | 0.684 | 0.671 | 0.714 | 0.809 | 0.73 | 0.679 | 0.714 | 0.744 | 0.786 | 1.04 | 1 | 0.992 | 1.07 | 0.982 | 0.392 | 0.422 | 0.453 | 0.434 | 0.38
A549 | 0.607 | 0.445 | 0.713 | 0.483 | 0.696 |  |  |  |  |  | 0.69 | 0.626 | 0.675 | 0.784 | 0.55 | 0.148 | 0.123 | 0.201 | 0.0774 | 0.0726
A-427 | 0.682 | 0.683 | 0.784 | 0.604 | 0.784 | 0.798 | 0.769 | 0.705 | 0.629 | 0.732 | 1.07 | 1.1 | 1.15 |  | 1.08 | 0.361 | 0.266 | 0.307 | 0.204 | 0.124
ABC-1 | 0.863 | 0.698 |  | 0.803 | 0.75 |  |  |  |  |  | 1.09 | 0.839 | 1.14 | 1.08 | 0.954 | 0.21 | 0.223 | 0.228 | 0.187 | 0.21
BEN | 0.6 | 0.596 | 0.66 | 0.697 | 0.601 | 1.05 | 1.04 | 1.15 | 1.13 | 1.16 | 0.903 | 0.876 | 1.05 | 0.97 | 0.95 | 0.276 | 0.267 | 0.274 | 0.263 | 0.239
CAL-12T | 0.442 | 0.494 | 0.397 | 0.441 | 0.348 | 0.505 | 0.366 | 0.232 | 0.338 | 0.457 | 1.1 | 1.05 | 1.21 | 1.41 | 1.09 | 0.581 | 0.521 | 0.426 | 0.516 | 0.363
COR-L23 | 1.01 | 0.75 | 0.764 | 0.615 | 0.72 | 0.743 | 0.557 | 0.654 | 0.579 | 0.21 | 0.762 | 0.719 | 0.755 | 0.734 | 0.697 | 0.507 | 0.395 | 0.344 | 0.315 | 0.258
COR-L 105 | 0.465 | 0.422 | 0.393 | 0.416 | 0.351 | 0.484 | 0.509 | 0.474 | 0.445 | 0.442 | 0.844 | 1.07 | 0.983 | 1 | 0.963 | 0.463 | 0.621 | 0.457 | 0.3 | 0.358
Calu-6 | 1.06 | 0.872 | 0.933 | 0.736 | 0.848 |  |  |  |  |  | 1.05 | 0.924 | 0.866 | 1.16 | 0.986 |  |  |  |  | 
ChaGo-K-1 | 0.728 | 0.785 | 0.663 | 0.824 | 0.824 | 0.979 | 0.886 | 0.917 | 0.884 | 1 |  |  |  |  |  | 0.519 | 0.511 | 0.392 | 0.405 | 0.382
EBC-1 | 0.434 | 0.316 | 0.354 | 0.265 | 0.269 |  |  |  |  |  | 0.804 | 0.792 | 0.785 | 0.933 | 0.675 |  |  |  |  | 
EKVX | 0.62 | 0.421 | 0.499 | 0.484 | 0.575 | 0.403 | 0.314 | 0.359 | 0.38 | 0.376 | 0.826 | 0.755 | 0.773 | 1 | 0.833 | 0.266 | 0.249 | 0.248 | 0.186 | 0.19
EMC-BAC-2 | 0.552 | 0.53 | 0.531 | 0.529 | 0.636 | 0.938 | 0.843 | 0.829 | 0.914 | 0.812 | 0.75 | 0.736 | 0.727 | 0.761 | 0.695 | 0.544 | 0.457 | 0.339 | 0.336 | 0.125
EPLC-272H | 0.309 | 0.338 | 0.273 | 0.343 | 0.401 | 0.327 | 0.337 | 0.273 | 0.301 | 0.319 | 0.924 | 0.918 | 0.946 | 1.04 | 0.811 | 0.267 | 0.323 | 0.261 | 0.249 | 0.206
H3255 | 0.454 | 0.465 | 0.44 | 0.573 | 0.558 | 0.756 | 0.573 | 0.629 | 0.554 | 0.606 | 0.785 | 0.659 | 0.705 | 0.83 | 0.621 | 0.358 | 0.378 | 0.372 |  | 0.349
